Test results published in patent US20240368655A1, “CLICK HANDLE-MODIFIED DEOXY-FLUOROARABINO NUCLEIC ACID AS A SYNTHETIC GENETIC POLYMER CAPABLE OF POST-POLYMERIZATION FUNCTIONALIZATION” (THE TRUSTEES OF BOSTON COLLEGE, priority 2023, published 2024).
Entries after “also recorded” stand apart in the source; their conditions may differ.

Target: T1, Thermococcus gorgonarius (Tgo) DNA polymerase (Thermococcus gorgonarius, UniProt P56689)
T1 construct: made in house
T1 sequence (P56689 1-773): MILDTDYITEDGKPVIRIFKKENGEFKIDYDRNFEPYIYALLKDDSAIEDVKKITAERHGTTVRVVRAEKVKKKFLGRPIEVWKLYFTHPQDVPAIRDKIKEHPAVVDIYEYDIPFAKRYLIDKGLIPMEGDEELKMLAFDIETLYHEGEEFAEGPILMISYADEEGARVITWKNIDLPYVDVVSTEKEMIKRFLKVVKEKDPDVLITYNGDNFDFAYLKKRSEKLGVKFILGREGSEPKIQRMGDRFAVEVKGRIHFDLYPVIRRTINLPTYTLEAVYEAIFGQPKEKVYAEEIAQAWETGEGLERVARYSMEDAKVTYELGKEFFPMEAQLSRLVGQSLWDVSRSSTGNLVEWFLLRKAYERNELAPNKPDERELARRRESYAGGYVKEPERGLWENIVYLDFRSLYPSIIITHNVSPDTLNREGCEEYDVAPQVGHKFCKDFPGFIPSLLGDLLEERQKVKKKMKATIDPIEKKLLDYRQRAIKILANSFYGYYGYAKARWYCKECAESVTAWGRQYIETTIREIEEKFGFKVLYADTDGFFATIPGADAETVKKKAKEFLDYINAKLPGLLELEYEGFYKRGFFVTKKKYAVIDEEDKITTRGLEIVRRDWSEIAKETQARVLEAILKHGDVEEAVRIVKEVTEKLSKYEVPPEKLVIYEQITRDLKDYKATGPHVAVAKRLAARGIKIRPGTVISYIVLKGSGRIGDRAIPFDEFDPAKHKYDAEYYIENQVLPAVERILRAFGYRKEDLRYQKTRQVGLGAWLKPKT
Experiment: DNA-templated primer extension by Tgo DNA polymerase
Assay type: biochemical
Conditions: with FANA ATP, CTP, GTP, DNA primer-template complex
Method: It was hypothesized that Thermococcus gorgonarius (Tgo) DNA polymerase could tolerate the 5-1,7-octadiyne modification on uracil and that the enzyme could incorporate FANA nucleotides. To investigate the hypothesis, a primer extension experiment was performed, in which a DNA primer-template complex was enzymatically extended by Tgo DNA polymerase using commercially available FANA nucleotide triphosphates (A, C, and G) as well as C8-alkyne-FANA UTP 11. The DNA template was prepared to contain a 40-nucleotide (nt) random region to avoid sequence bias, as well as a 24-nt poly-AAC tail at the 3′-end, which would not be transcribed, to provide a mobility difference between extension product (76 nt) and DNA template (100 nt) in denaturing polyacrylamide gel electrophoresis (PAGE). The DNA primer was labeled by a 5′-Cy5 fluorophore to allow easy detection of the extended product. A control experiment in which all FANA nucleotide triphosphates comprising natural bases (A, C, G and T) was also conducted to determine the impact of the 5-1,7-octadiyne modification of uracil on the primer extension reactivity. Tgo DNA polymerase was added in various amounts to confirm that the generation of the extended products was mediated by the Tgo DNA polymerase in a dose-dependent fashion. […]

Substance: 5-octa-1,7-diynyluracil 2′-deoxy-2′-fluoroarabino triphosphate [compound 11]
- recognition and incorporation as substrate in primer extension: produced the full-length products in a polymerase dose-dependent fashion
- recognition and incorporation as substrate in primer extension (listed as C8-alkyne-FANA UTP): successfully served as a substrate; also recorded: quantitatively incorporated
